The target in the assay is recombinant full length HPK-1 enzyme (Homo sapiens (Human), UniProt Q92918). Description: HPK-1 biochemical enzyme assay (ADP-Glo kinase inhibition). To be noted: recombinant full length HPK-1 6.8 nM, 10 μM ATP, 12.5 μM MBP, 30 mins at 25° C. The method in brief: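 ADP-Glo readout of ADP formed after a 30 min, 25° C. reaction of 6.8 nM full-length HPK-1 with swine myelin basic protein (12.5 μM) and ATP (10 μM) in Tris pH 7.4 buffer with MgCl2, DTT and BSA. Ten compound concentrations tested; percent inhibition set against vehicle (0%) and no-enzyme (100%) controls gave IC50.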

SMILES strings stand for the structures.

Chain of recombinant full length HPK-1 enzyme (Q92918 whole entry, species assumed): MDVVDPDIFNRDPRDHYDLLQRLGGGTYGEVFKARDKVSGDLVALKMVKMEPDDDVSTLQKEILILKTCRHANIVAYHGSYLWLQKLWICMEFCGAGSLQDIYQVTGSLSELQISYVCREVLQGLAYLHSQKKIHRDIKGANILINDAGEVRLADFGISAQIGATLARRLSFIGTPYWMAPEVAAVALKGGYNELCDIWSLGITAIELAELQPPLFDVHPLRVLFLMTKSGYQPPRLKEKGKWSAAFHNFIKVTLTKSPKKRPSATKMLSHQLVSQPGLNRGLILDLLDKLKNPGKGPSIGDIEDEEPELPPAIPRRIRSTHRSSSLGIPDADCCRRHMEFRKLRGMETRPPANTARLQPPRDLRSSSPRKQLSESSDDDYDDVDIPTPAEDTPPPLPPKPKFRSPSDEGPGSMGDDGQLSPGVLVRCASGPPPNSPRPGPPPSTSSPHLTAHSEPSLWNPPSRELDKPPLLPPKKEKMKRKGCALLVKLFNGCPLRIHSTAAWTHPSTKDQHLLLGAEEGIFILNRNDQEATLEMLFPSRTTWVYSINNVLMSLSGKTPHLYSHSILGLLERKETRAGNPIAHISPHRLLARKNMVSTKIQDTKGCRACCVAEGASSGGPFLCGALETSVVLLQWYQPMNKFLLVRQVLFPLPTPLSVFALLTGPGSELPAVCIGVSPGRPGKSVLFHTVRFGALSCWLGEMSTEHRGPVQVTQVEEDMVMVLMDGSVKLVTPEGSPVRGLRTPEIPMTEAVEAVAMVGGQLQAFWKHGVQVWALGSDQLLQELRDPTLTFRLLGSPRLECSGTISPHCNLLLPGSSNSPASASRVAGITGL

For the compound `Cc1c(Nc2cc[nH]c(=O)c2C(=O)Nc2ccc(N3CCN(CCO)CC3)c(F)c2)cnc2c1NCC(C)O2` (stereo not drawn) [Example 186, 4-((3,8-dimethyl-2,3-dihydro-1H-pyrido[2,3-b][1,4]oxazin-7-yl)amino)-N-(3-fluoro-4-(4-(2-hydroxyethyl)piperazin-1-yl)phenyl)-2-oxo-1,2-dihydropyridine-3-carboxamide], the IC50 was no more than 10 nM.
In the case of `Cc1c(Nc2cc[nH]c(=O)c2C(=O)Nc2ccc(N3CCN(C(=O)N4CCC4)CC3)cc2)cnc2c1NCCO2` [Example 325, N-(4-(4-(azetidine-1-carbonyl)piperazin-1-yl)phenyl)-4-((8-methyl-2,3-dihydro-1H-pyrido[2,3-b][1,4]oxazin-7-yl)amino)-2-oxo-1,2-dihydropyridine-3-carboxamide] it was no more than 10 nM; in that of `COCCN1CCN(c2ccc(NC(=O)c3c(Nc4cnc5c(c4C)NCCO5)nc[nH]c3=O)cc2)CC1` [Example 413, N-(4-(4-(2-methoxyethyl)-piperazin-1-yl)phenyl)-4-((8-methyl-2,3-dihydro-1H-pyrido[2,3-b][1,4]oxazin-7-yl)amino)-6-oxo-1,6-dihydropyrimidine-5-carboxamide], 10 to 100 nM; in that of `Cc1c(Nc2cc[nH]c(=O)c2C(=O)Nc2ccc(N3CCN(C4COC4)CC3)cc2)cnc2c1NCCO2` [Example 256, 4-((8-methyl-2,3-dihydro-1H-pyrido[2,3-b][1,4]oxazin-7-yl)amino)-N-(4-(4-(oxetan-3-yl)piperazin-1-yl)phenyl)-2-oxo-1,2-dihydropyridine-3-carboxamide], no more than 10 nM.
Turning to `Cc1c(Nc2cc[nH]c(=O)c2C(=O)Nc2ccc(N3CC4CCC3CN4C)cc2)cnc2c1NCCO2` (stereo not drawn) [Example 235, 4-((8-methyl-2,3-dihydro-1H-pyrido[2,3-b][1,4]oxazin-7-yl)amino)-N-(4-(5-methyl-2,5-diazabicyclo[2.2.2]octan-2-yl)phenyl)-2-oxo-1,2-dihydropyridine-3-carboxamide], the IC50 was no more than 10 nM.
On to `Cc1c(Nc2cc[nH]c(=O)c2C(=O)Nc2ccc(N3CCN(C(=O)N(C)C)CC3)cc2)cnc2c1NCCO2` [Example 137, N,N-Dimethyl-4-(4-(4-((8-methyl-2,3-dihydro-1H-pyrido[2,3-b][1,4]oxazin-7-yl)amino)-2-oxo-1,2-dihydropyridine-3-carboxamido)phenyl) piperazine-1-carboxamide], for which the IC50 was no more than 10 nM.
Next, `CCC(=O)N1CCN(c2ccc(NC(=O)c3c(Nc4cnc5c(c4C)NCCO5)cc[nH]c3=O)cc2)CC1` [Example 251, 4-((8-methyl-2,3-dihydro-1H-pyrido[2,3-b][1,4]oxazin-7-yl)amino)-2-oxo-N-(4-(4-propionylpiperazin-1-yl)phenyl)-1,2-dihydropyridine-3-carboxamide]: no more than 10 nM.
Next, `COCCCN1CCN(c2ccc(NC(=O)c3c(Nc4cnc5c(c4C)NCC(C)O5)cc[nH]c3=O)cc2)CC1` (stereo not drawn) [Example 406, 4-((3,8-dimethyl-2,3-dihydro-1H-pyrido[2,3-b][1,4]oxazin-7-yl)amino)-N-(4-(4-(3-methoxypropyl)piperazin-1-yl)phenyl)-2-oxo-1,2-dihydropyridine-3-carboxamide]: 10 to 100 nM.
Next, `COCCN(C)C(=O)N1CCN(c2ccc(NC(=O)c3c(Nc4cnc5c(c4C)NCCO5)cc[nH]c3=O)cc2)CC1` [Example 290, N-(2-methoxyethyl)-N-methyl-4-(4-(4-((8-methyl-2,3-dihydro-1H-pyrido[2,3-b][1,4]oxazin-7-yl)amino)-2-oxo-1,2-dihydropyridine-3-carboxamido)phenyl)piperazine-1-carboxamide]: no more than 10 nM; `Cc1c(Nc2cc[nH]c(=O)c2C(=O)Nc2ccc(N3CCN(C(C)C)CC3)cc2)cnc2c1NCC(C)(C)O2` [Example 177, N-(4-(4-isopropylpiperazin-1-yl)phenyl)-2-oxo-4-((3,3,8-trimethyl-2,3-dihydro-1H-pyrido[2,3-b][1,4]oxazin-7-yl)amino)-1,2-dihydropyridine-3-carboxamide]: no more than 10 nM; `Cc1c(Nc2cc[nH]c(=O)c2C(=O)Nc2ccc(N3CCCC3CO)cc2)cnc2c1NCCO2` (stereo not drawn) [Example 397, N-(4-(2-(hydroxymethyl)pyrrolidin-1-yl)phenyl)-4-((8-methyl-2,3-dihydro-1H-pyrido[2,3-b][1,4]oxazin-7-yl)amino)-2-oxo-1,2-dihydropyridine-3-carboxamide]: 10 to 100 nM.
Turning to `Cc1c(Nc2cc[nH]c(=O)c2C(=O)Nc2ccc(N3CCN(C(=O)C4(C)CCC4)CC3)cc2)cnc2c1NCCO2` [Example 306, 4-((8-methyl-2,3-dihydro-1H-pyrido[2,3-b][1,4]oxazin-7-yl)amino)-N-(4-(4-(1-methylcyclobutane-1-carbonyl)piperazin-1-yl)phenyl)-2-oxo-1,2-dihydropyridine-3-carboxamide], the IC50 was no more than 10 nM.
On to `Cc1c(Nc2cc[nH]c(=O)c2C(=O)Nc2ccc(N3CCN4CCC[C@@H]4C3)cc2)cnc2c1NCCO2` [Example 329, (R)-N-(4-(hexahydropyrrolo[1,2-a]pyrazin-2(1H)-yl)phenyl)-4-((8-methyl-2,3-dihydro-1H-pyrido[2,3-b][1,4]oxazin-7-yl)amino)-2-oxo-1,2-dihydropyridine-3-carboxamide], for which the IC50 was no more than 10 nM.
As for `Cc1c(Nc2cc[nH]c(=O)c2C(=O)Nc2ccc(N3CCN(C(=O)C4CN(C)C4)CC3)cc2)cnc2c1NCCO2` [Example 373, 4-((8-methyl-2,3-dihydro-1H-pyrido[2,3-b][1,4]oxazin-7-yl)amino)-N-(4-(4-(1-methylazetidine-3-carbonyl)piperazin-1-yl)phenyl)-2-oxo-1,2-dihydropyridine-3-carboxamide], the IC50 lay within 10 to 100 nM.
In the case of `Cc1c(Nc2cc[nH]c(=O)c2C(=O)Nc2ccc(-c3ccnn3C(C)C)cc2)cnc2c1NCCO2` [Example 271, N-(4-(1-isopropyl-1H-pyrazol-5-yl)phenyl)-4-((8-methyl-2,3-dihydro-1H-pyrido[2,3-b][1,4]oxazin-7-yl)amino)-2-oxo-1,2-dihydropyridine-3-carboxamide] it was 10 to 100 nM.
On to `Cc1c(Nc2cc[nH]c(=O)c2C(=O)Nc2ccc(N3CCC(N(C)C(=O)C(C)C)C3)cc2)cnc2c1NCCO2` (stereo not drawn) [Example 381, 4-((8-methyl-2,3-dihydro-1H-pyrido[2,3-b][1,4]oxazin-7-yl)amino)-N-(4-(3-(N-methylisobutyramido)pyrrolidin-1-yl)phenyl)-2-oxo-1,2-dihydropyridine-3-carboxamide], for which the IC50 was in the range of 10 to 100 nM.
In the case of `Cc1c(Nc2cc[nH]c(=O)c2C(=O)Nc2ccc(N3CCC(N4CCN(C)CC4)CC3)cc2)cnc2c1NCCO2` [Example 274, 4-((8-methyl-2,3-dihydro-1H-pyrido[2,3-b][1,4]oxazin-7-yl)amino)-N-(4-(4-(4-methylpiperazin-1-yl)piperidin-1-yl)phenyl)-2-oxo-1,2-dihydropyridine-3-carboxamide] it was no more than 10 nM; in that of `Cc1c(Nc2cc[nH]c(=O)c2C(=O)Nc2ccc(N3CCN(C(=O)C(C)(C)F)CC3)cc2)cnc2c1NCCO2` [Example 342, N-(4-(4-(2-fluoro-2-methylpropanoyl)piperazin-1-yl)phenyl)-4-((8-methyl-2,3-dihydro-1H-pyrido[2,3-b][1,4]oxazin-7-yl)amino)-2-oxo-1,2-dihydropyridine-3-carboxamide], no more than 10 nM.

One may read the IC50 as the point on the concentration scale where inhibition reaches its midpoint.
